Results as given in ChEMBL document CHEMBL1135114, “Syntheses and bioactivities of novel carbamates combining platelet activating factor (PAF) receptor antagonist with thromboxane synthase inhibitor (TxSI)” (Bioorg Med Chem Lett, 2002).
pIC50: −log10 of the molar value.

Assays:
Mus musculus [1] = assay: Ability to protect mice from the lethal effect of Platelet activating factor on iv administration of compound; format: functional
Mus musculus [2] = assay: Ability to protect mice from the lethal effect of Platelet activating factor on po administration of compound; format: functional
Oryctolagus cuniculus = organism: Oryctolagus cuniculus; assay: The compound was tested for inhibition of Platelet activating factor (PAF) induced platelet aggregation in rabbit platelet rich plasma; format: functional
Rattus norvegicus [3] = assay: Inhibition of serum TXB2 production in the rats after intravenous administration; format: functional
Rattus norvegicus [4] = assay: Inhibition of serum TXB2 production in the rats after peroral administration; format: functional; details: po
Thromboxane-A synthase = target: T1, Thromboxane-A synthase (Homo sapiens, UniProt P24557); assay: Thromboxane A2 synthase inhibitory activity was measured from inhibition of thromboxane B2 production in human platelet microsomes; parameters: species or system Microsome
T1 sequence (P24557 whole entry): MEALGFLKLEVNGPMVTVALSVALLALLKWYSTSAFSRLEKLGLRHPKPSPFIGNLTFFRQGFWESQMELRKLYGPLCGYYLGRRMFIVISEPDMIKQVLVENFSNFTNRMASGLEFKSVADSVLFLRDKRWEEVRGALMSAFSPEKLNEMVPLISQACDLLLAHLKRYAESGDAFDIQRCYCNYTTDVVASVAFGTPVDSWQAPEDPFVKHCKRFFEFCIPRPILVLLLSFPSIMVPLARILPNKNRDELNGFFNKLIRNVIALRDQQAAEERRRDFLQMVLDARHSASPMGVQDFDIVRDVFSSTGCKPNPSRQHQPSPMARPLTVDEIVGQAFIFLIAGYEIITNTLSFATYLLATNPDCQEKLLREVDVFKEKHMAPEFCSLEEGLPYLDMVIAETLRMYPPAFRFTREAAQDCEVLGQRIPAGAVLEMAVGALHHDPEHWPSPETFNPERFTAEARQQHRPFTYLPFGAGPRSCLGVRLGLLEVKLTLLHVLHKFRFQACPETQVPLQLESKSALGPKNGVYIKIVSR

| Structure (SMILES) | ED50 (Mus musculus [1]) [mg/kg] | ED50 (Mus musculus [2]) [mg/kg] | pIC50 (Oryctolagus cuniculus) | ED50 (Rattus norvegicus [3]) [mg/kg] | ED50 (Rattus norvegicus [4]) [mg/kg] | pIC50 (Thromboxane-A synthase) |
| --- | --- | --- | --- | --- | --- | --- |
| CCOC(=O)CCCC/[N+]([O-])=C(/c1cccnc1)c1cccc(CN2CCc3c(sc4c3C(c3ccccc3Cl)=NCc3nnc(C)n3-4)C2)c1 | 0.8 | > 10 | 6.72 | 0.1 | > 10 | 7.17 |
| CCOC(=O)CCCC/[N+]([O-])=C(/c1cccnc1)c1cccc(COC(=O)N2CCc3c(sc4c3C(c3ccccc3Cl)=NC(C)c3nnc(C)n3-4)C2)c1 (stereo not drawn) | 0.2 | > 10 | 7.39 | 0.1 | > 10 | 7.16 |
| CCOC(=O)CCCC/[N+]([O-])=C(/c1cccnc1)c1cccc(COC(=O)N2CCc3c(sc4c3C(c3ccccc3Cl)=NCc3nnc(C)n3-4)C2)c1 | 0.7 | > 10 | 6.86 | 0.1 | > 10 | 7.21 |
| CCOC(=O)CCCC/[N+]([O-])=C(/c1cccnc1)c1cccc(CN2CCc3c(sc4c3C(c3ccccc3Cl)=NC(C)c3nnc(C)n3-4)C2)c1 (stereo not drawn) | 0.2 | > 10 | 7.33 | 0.1 | > 10 | 7.22 |
| O=C(O)CCCC/C=C(/c1ccccc1)c1cccnc1 [ISBOGREL] |  |  |  | 0.01 | 0.05 |  |
| O=C(O)/C=C/c1ccc(Cn2ccnc2)cc1 [OZAGREL] |  |  |  | 0.02 | 0.1 |  |
